Key:
AsPC-1 HiBiT-KRASG12D = target: T1, AsPC-1 HiBiT-KRASG12D (Homo sapiens, UniProt P01116, G12D); assay: HiBiT degradation assay (G12D), AsPC-1 HiBiT-KRASG12D cells; type: cell-based; conditions: 24 hours treatment; for Dmax: ASPC1, AsPC-1 HiBiT-KRASG12D cells, maximum degradation observed; for DC50: AsPC-1 HiBiT-KRASG12D cells, HiBiT luminescence
T1 construct: insert the HiBiT tag onto the N-terminus of one or more of the endogenous KRAS alleles; endogenous in cells; host or cells: AsPC-1 (ATCC CRL-1682), CRISPR-Cas9 knock-in clone, one tagged allele
Outline: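 Endogenous KRASG12D levels were measured via an N-terminal HiBiT tag knocked into AsPC-1 cells. Cells received compound titrations for 24 hours, and HiBiT luminescence was detected after a 45-minute lytic reagent incubation at room temperature.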

SW1573 HiBiT-KRASG12C = target: T2, SW1573 HiBiT-KRASG12C (Homo sapiens, UniProt P01116, G12C); assay: HiBiT degradation assay (G12C), SW1573 HiBiT-KRASG12C cells; type: cell-based; conditions: 24 hours treatment; for DC50: HiBiT luminescence; for Dmax: maximum degradation observed;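 for DC50: Letter grades: C is 1000 to 3000 nM and D is above 3000 nM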
T2 construct: expressed in transfected cells
Method: Reagents. SW1573 (CRL-2170), AsPC-1 (CRL-1682), and SW620 (CCL-227) cells were purchased from ATCC. SW1573 cells are homozygous for the G12C mutation in KRAS, AsPC-1 cells are homozygous for the G12D mutation, and SW620 cells are homozygous for the G12V mutation. SW1573 cells were cultured in DMEM+F12+Glutamax (+Sodium Bicarbonate, +sodium pyruvate, ThermoFisher scientific, #10565) supplemented with 10% FBS (ThermoFisher scientific, #2060357) and 1% Antibiotic-Antimycotic (ThermoFisher scientific, #15240096). AsPC-1 cells were cultured in GIBCO RPMI-1640 (ThermoFisher scientific, catalog #61870-036 with Glutamax, No HEPES, No Na Pyruvate) supplemented with 10% FBS (ThermoFisher scientific, catalog #2060357) and 1× Penicillin-Streptomycin (ThermoFisher scientific, catalog #15140122, 10000 U/ml, 100×). SW620 cells were cultured in DMEM Glutamax (ThermoFisher scientific, catalog #10566016) supplemented with 10% FBS (ThermoFisher scientific, catalog #2060357) and 1× Penicillin-Streptomycin (ThermoFisher scientific, catalog #15140122, 10000 U/ml, 100×). For degradation assays, 384 well plates were used. Alamar blue was purchased from ThermoFisher scientific (A50101) and used according to manufacturer instructions. The Nano-Glo® HiBiT Lytic Detection System and Nano-Glo® HiBiT Blotting System were purchased from Promega (#N3050 and #N2410) and used according to manufacturer instructions.
HiBiT-tagged cell line generation. To create the SW1573 HiBiT-KRASG12C cell line, the nucleotide sequence encoding the 11 amino acid HiBiT tag from Promegal was appended to the N-terminus of the KRASG12C coding sequence. This synthesized DNA was cloned into a modified pcDNA3.1 vector under the control of the thymidine kinase (TK) promoter. This HiBiT-KRASG12C expressing plasmid was transfected into parental SW1573 cells and colonies were selected using 400 μg/mL zeocin. The resulting clonal lines were screened for expression of HiBiT-KRASG12C protein using Nano-Glo® HiBiT Blotting System. A luminescent band of the correct size for HiBiT-KRASG12C was detected in several clones. Clone E6 was selected for further studies.
HiBiT degradation assays (G12C and G12D). Either SW1573 HiBiT-KRasG12C or AsPC-1 HiBiT-KRasG12D cells were plated at 9000 or 15,000 cells/well in a 384 well plate (Corning #3770). Compounds of the present disclosure and positive controls were diluted in the appropriate cell media and applied to the plated cells resulting in a final concentration titration of 10 μM to 508 pM in 0.5% DMSO. Gambogic acid was used as a positive control for cytotoxicity and titrated from 10 μM to 78 nM. All assays were performed in triplicate. Cells were treated with compounds for 24 hours at 37° C. in an incubator containing 5% CO2. Following treatment, alamar blue was used to determine if any compounds led to a loss in cell viability after 24 hours. The 10× alamar blue reagent was added to a final concentration of 1× as recommended by the manufacturer and cells were returned to the incubator for 4 hours. Plates were then allowed to equilibrate to room temperature and fluorescence was measured using a Perkin-Elmer EnVision. After completion of the fluorescence read, the liquid from each well was removed and the cells were washed with PBS. The Nano-Glo® HiBiT detection reagent was prepared according to the manufacturer's instructions and added to each well after the PBS wash was removed. Following incubation at room temperature for 45 minutes, the luminescence was read using the ultra-sensitive luminescence aperture on the Envision instrument.
Data analysis. Fluorescence values from the alamar blue treatment were normalized to the DMSO-only control for each compound titration. […]

T1 sequence (P01116 1-188 isoform P01116-2 G12D): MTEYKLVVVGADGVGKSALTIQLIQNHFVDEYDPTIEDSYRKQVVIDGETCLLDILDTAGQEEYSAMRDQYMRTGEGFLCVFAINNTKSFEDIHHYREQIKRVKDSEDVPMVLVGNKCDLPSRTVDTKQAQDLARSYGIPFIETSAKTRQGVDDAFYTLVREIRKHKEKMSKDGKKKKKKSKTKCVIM
T2 sequence (P01116 1-188 isoform P01116-2 G12C): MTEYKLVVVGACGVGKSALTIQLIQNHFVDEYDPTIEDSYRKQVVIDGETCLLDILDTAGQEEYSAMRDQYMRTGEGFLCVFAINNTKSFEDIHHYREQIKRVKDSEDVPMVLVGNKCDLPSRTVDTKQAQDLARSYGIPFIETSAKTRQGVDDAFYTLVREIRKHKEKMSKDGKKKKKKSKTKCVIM

CCc1cccc2cc(O)cc(-c3ncc4c(N5CC6CCC(C5)N6)nc(OC[C@]56CCCN5[C@@H](COCC(=O)N[C@H](C(=O)N5C[C@H](O)C[C@H]5C(=O)N[C@@H](C)c5ccc(-c7scnc7C)cc5)C(C)(C)C)CC6)nc4c3F)c12 [Compound 1, (2S,4R)-1-[(2S)-2-[[2-[[(3R,8R)-8-[[4-(3,8-diazabicyclo[3.2.1]octan-3-yl)-7-(8-ethyl-3-hydroxy-1-naphthyl)-8-fluoro-pyrido[4,3-d]pyrimidin-2-yl]oxymethyl]-1,2,3,5,6,7-hexahydropyrrolizin-3-yl]methoxy]acetyl]amino]-3,3-dimethyl-butanoyl]-4-hydroxy-N-[(1S)-1-[4-(4-methylthiazol-5-yl)phenyl]ethyl]pyrrolidine-2-carboxamide] was tested, and the Dmax (AsPC-1 HiBiT-KRASG12D) was 80 to 100%, the DC50 (AsPC-1 HiBiT-KRASG12D) was 0.6 to 1 µM and the DC50 (SW1573 HiBiT-KRASG12C) was over 3 µM. For the same molecule, the Dmax (SW1573 HiBiT-KRASG12C) was 20 to 60%.

Molecule CCc1cccc2cc(O)cc(-c3ncc4c(N5CC6CCC(C5)N6)nc(OC[C@@]56CCCN5[C@H](COCC(=O)N[C@H](C(=O)N5C[C@H](O)C[C@H]5C(=O)N[C@@H](C)c5ccc(-c7scnc7C)cc5)C(C)(C)C)CC6)nc4c3F)c12 [Compound 2, (2S,4R)-1-[(2S)-2-(2-{[(3S,7aS)-7a-{[(4-{3,8-diazabicyclo[3.2.1]octan-3-yl}-7-(8-ethyl-3-hydroxynaphthalen-1-yl)-8-fluoropyrido[4,3-d]pyrimidin-2-yl)oxy]methyl}-hexahydro-1H-pyrrolizin-3-yl]methoxy}acetamido)-3,3-dimethylbutanoyl]-4-hydroxy-N-[(1S)-1-[4-(4-methyl-1,3-thiazol-5-yl)phenyl]ethyl]pyrrolidine-2-carboxamide] has a Dmax (AsPC-1 HiBiT-KRASG12D) of 80 to 100%, a DC50 (AsPC-1 HiBiT-KRASG12D) of under 0.6 µM and a DC50 (SW1573 HiBiT-KRASG12C) of 1 to 3 µM. The Dmax (SW1573 HiBiT-KRASG12C) was 20 to 60%.

Work on Cc1ccc2[nH]ncc2c1-c1ncc2c(N3CC4CCC(C3)N4)nc(OCCN3CCC(COc4cc([C@H](C(=O)N5C[C@H](O)C[C@H]5C(=O)N[C@@H](C)c5ccc(-c6scnc6C)cc5)C(C)C)on4)CC3)nc2c1F [Compound 3, (2S,4R)-1-[(2R)-2-[3-[[1-[2-[4-(3,8-diazabicyclo[3.2.1]octan-3-yl)-8-fluoro-7-(5-methyl-1H-indazol-4-yl)pyrido[4,3-d]pyrimidin-2-yl]oxyethyl]-4-piperidyl]methoxy]isoxazol-5-yl]-3-methyl-butanoyl]-4-hydroxy-N-[(1S)-1-[4-(4-methylthiazol-5-yl)phenyl]ethyl]pyrrolidine-2-carboxamide] yielded a DC50 (AsPC-1 HiBiT-KRASG12D) of over 3 µM and a DC50 (SW1573 HiBiT-KRASG12C) of over 3 µM.

For CCc1cccc2cc(O)cc(-c3ncc4c(N5CC6CCC(C5)N6)nc(OC[C@@]56CCCN5[C@H](COC(=O)N5CCN(c7cc([C@@H](C(=O)N8C[C@H](O)C[C@H]8C(=O)N[C@@H](C)c8ccc(-c9scnc9C)cc8)C(C)C)on7)CC5)CC6)nc4c3F)c12 [Compound 4], the Dmax (AsPC-1 HiBiT-KRASG12D) was 20 to 60%, the DC50 (AsPC-1 HiBiT-KRASG12D) was under 0.6 µM and the DC50 (SW1573 HiBiT-KRASG12C) was over 3 µM.

CCc1cccc2cc(O)cc(-c3ncc4c(N5CC6CCC(C5)N6)nc(OC[C@@]56CCCN5[C@H](COC(=O)N5CCN(c7cc([C@H](C(=O)N8C[C@H](O)C[C@H]8C(=O)N[C@@H](C)c8ccc(-c9scnc9C)cc8)C(C)C)on7)CC5)CC6)nc4c3F)c12 [Compound 5] was tested, and the Dmax (AsPC-1 HiBiT-KRASG12D) was 80 to 100%, the DC50 (AsPC-1 HiBiT-KRASG12D) was under 0.6 µM and the DC50 (SW1573 HiBiT-KRASG12C) was at most 0.6 µM. It also gave a Dmax (SW1573 HiBiT-KRASG12C) of 60 to 80%.

In the case of CCc1cccc2cc(O)cc(-c3ncc4c(N5CC6CCC(C5)N6)nc(OC[C@]56CCCN5[C@@H](COC(=O)N5CCN(c7cc([C@@H](C(=O)N8C[C@H](O)C[C@H]8C(=O)N[C@@H](C)c8ccc(-c9scnc9C)cc8)C(C)C)on7)CC5)CC6)nc4c3F)c12 [Compound 6], the Dmax (AsPC-1 HiBiT-KRASG12D) is reported as under 20%, the DC50 (AsPC-1 HiBiT-KRASG12D) is reported as 1 to 3 µM and the DC50 (SW1573 HiBiT-KRASG12C) is reported as over 3 µM.

Molecule CCc1cccc2cc(O)cc(-c3ncc4c(N5CC6CCC(C5)N6)nc(OCCN5CCC(COc6cc([C@@H](C(=O)N7C[C@H](O)C[C@H]7C(=O)N[C@@H](C)c7ccc(-c8scnc8C)cc7)C(C)C)on6)CC5)nc4c3F)c12 [Compound 8, (2S,4R)-1-[(2S)-2-[3-[[1-[2-[4-(3,8-diazabicyclo[3.2.1]octan-3-yl)-7-(8-ethyl-3-hydroxy-1-naphthyl)-8-fluoro-pyrido[4,3-d]pyrimidin-2-yl]oxyethyl]-4-piperidyl]methoxy]isoxazol-5-yl]-3-methyl-butanoyl]-4-hydroxy-N-[(1S)-1-[4-(4-methylthiazol-5-yl)phenyl]ethyl]pyrrolidine-2-carboxamide] has a Dmax (AsPC-1 HiBiT-KRASG12D) of 20 to 60%, a DC50 (AsPC-1 HiBiT-KRASG12D) of 1 to 3 µM and a DC50 (SW1573 HiBiT-KRASG12C) of over 3 µM.

For CCc1cccc2cc(O)cc(-c3ncc4c(N5CC6CCC(C5)N6)nc(OCCN5CCC(COC6(C(=O)N[C@H](C(=O)N7C[C@H](O)C[C@H]7C(=O)N[C@@H](C)c7ccc(-c8scnc8C)cc7)C(C)(C)C)CC6)CC5)nc4c3F)c12 [Compound 9, (2S,4R)-1-[(2S)-2-[[1-[[1-[2-[4-(3,8-diazabicyclo[3.2.1]octan-3-yl)-7-(8-ethyl-3-hydroxy-1-naphthyl)-8-fluoro-pyrido[4,3-d]pyrimidin-2-yl]oxyethyl]-4-piperidyl]methoxy]cyclopropanecarbonyl]amino]-3,3-dimethyl-butanoyl]-4-hydroxy-N-[(1S)-1-[4-(4-methylthiazol-5-yl)phenyl]ethyl]pyrrolidine-2-carboxamide], the Dmax (AsPC-1 HiBiT-KRASG12D) was 80 to 100%, the DC50 (AsPC-1 HiBiT-KRASG12D) was under 0.6 µM and the DC50 (SW1573 HiBiT-KRASG12C) was over 3 µM.

CCc1cccc2cc(O)cc(-c3ncc4c(N5CC6CCC(C5)N6)nc(OCCN5CCC(COCC(=O)N[C@H](C(=O)N6C[C@@H](O)C[C@H]6C(=O)N[C@@H](C)c6ccc(-c7scnc7C)cc6)C(C)(C)C)CC5)nc4c3F)c12 [Compound 10, (2S,4S)-1-[(2S)-2-[[2-[[1-[2-[4-(3,8-diazabicyclo[3.2.1]octan-3-yl)-7-(8-ethyl-3-hydroxy-1-naphthyl)-8-fluoro-pyrido[4,3-d]pyrimidin-2-yl]oxyethyl]-4-piperidyl]methoxy]acetyl]amino]-3,3-dimethyl-butanoyl]-4-hydroxy-N-[(1S)-1-[4-(4-methylthiazol-5-yl)phenyl]ethyl]pyrrolidine-2-carboxamide] was tested, and the DC50 (AsPC-1 HiBiT-KRASG12D) was over 3 µM and the DC50 (SW1573 HiBiT-KRASG12C) was over 3 µM.

CCc1cccc2cc(O)cc(-c3ncc4c(N5CC6CCC(C5)N6)nc(OCCN5CCC(OCCOCC(=O)N[C@H](C(=O)N6C[C@H](O)C[C@H]6C(=O)N[C@@H](C)c6ccc(-c7scnc7C)cc6)C(C)(C)C)CC5)nc4c3F)c12 [Compound 11] showed a Dmax (AsPC-1 HiBiT-KRASG12D) of 60 to 80%, a DC50 (AsPC-1 HiBiT-KRASG12D) of 1 to 3 µM and a DC50 (SW1573 HiBiT-KRASG12C) of over 3 µM.

In the case of CCc1cccc2cc(O)cc(-c3ncc4c(N5CC6CCC(C5)N6)nc(OC[C@H]5CC[C@@]6(COC(=O)N7CCN(c8cc([C@H](C(=O)N9C[C@H](O)C[C@H]9C(=O)N[C@@H](C)c9ccc(-c%10scnc%10C)cc9)C(C)C)on8)CC7)CCCN56)nc4c3F)c12 [Compound 343, [(3R,8R)-3-[[4-(3,8-diazabicyclo[3.2.1]octan-3-yl)-7-(8-ethyl-3-hydroxy-1-naphthyl)-8-fluoro-pyrido[4,3-d]pyrimidin-2-yl]oxymethyl]-1,2,3,5,6,7-hexahydropyrrolizin-8-yl]methyl 4-[5-[(1R)-1-[(2S,4R)-4-hydroxy-2-[[(1S)-1-[4-(4-methylthiazol-5-yl)phenyl]ethyl]carbamoyl]pyrrolidine-1-carbonyl]-2-methyl-propyl]isoxazol-3-yl]piperazine-1-carboxylate], the Dmax (AsPC-1 HiBiT-KRASG12D) is reported as 80 to 100% and the DC50 (AsPC-1 HiBiT-KRASG12D) is reported as under 0.6 µM.
